Reference: patent publication US20160115540A1, “PRODRUGS AND DRUGS” (Biogen MA Inc., priority 2013, published 2016)
Where a name gives a salt, the structure may show the parent alone.

Experiments:
[1] = tested on: cerebellum; assay: Transcriptional profiling on Affymetrix GeneChips, single dose, naïve mice: cerebellum; type: in vivo, C57BL/6 mice; conditions: for Number of differentially expressed genes identified: Cerebellum: Naïve, Single Dose
Experimental: In vivo, DMF is rapidly metabolized to monomethyl fumarate (MMF).
Animals were exposed to CO2 and whole blood collected via cardiac puncture. Two 100 μl aliquots of whole blood were collected in 1.5 mL microcentrifuge tubes and snap frozen in liquid nitrogen. Peripheral (liver, spleen, kidney and jejunum) and CNS brain (cerebellum, hippocampus, striatum and cortex) tissues were harvested and snap frozen in liquid nitrogen, with special care taken to collect tissues of similar size and from the same location. All samples were stored at −80° C. until RNA extraction was conducted.
For RNA preparation, frozen tissues were placed in 2 mL RNAse-free 96-well blocks with 1.5 mL QIAzol Lysis Reagent (QIAgen) and a 3.2 mm stainless steel bead (BioSpec Products, Bartlesville, Okla.). Tissues were disrupted for four cycles of 45 seconds in a Mini-Beadbeater (Biospec Products). RNA was extracted in chloroform and the aqueous phase was mixed with an equal volume of 70% ethanol. Extracted RNA was applied to RNeasy 96 plates and purified by the spin method according to the manufacturer's protocol (RNeasy 96 Universal Tissue Protocol, QIAgen, Hilden Germany).
Automated sample amplifications and biotin labelings were carried out using the NuGEN Ovation RNA Amplification system V2 (Cat #3100), Ovation WB reagent (Cat #1300) and Encore Biotin module (Cat #4200) (NuGEN Technologies, Inc, San Carlos, Calif.) according to manufacturer's recommendations using an Arrayplex automated liquid handler (Beckman Coulter, Indianapolis, Ind.). Two micrograms of biotin labeled sscDNA probe were hybridized to Affymetrix GeneChip Affymetrix HT_MG-430_PM plate arrays with modified conditions as described in Allaire et al. Washing and staining of the hybridized arrays were completed as described in the GeneChip Expression analysis technical manual for HT plate arrays using the Genechip® Array Station (Affymetrix, Santa Clara, Calif.) with modifications as described in Allaire et al. The processed GeneChip® plate arrays were scanned using GeneTitan scanner (Affymetrix, Santa Clara, Calif.).
Affymetrix scans were subject to quality control (QC) measures. These tests included a visual inspection of the distribution of raw signal intensities and an assessment of RNA degradation, relative log expression (RLE), and normalized unsealed standard error (NUSE). All sample scans that passed these QC metrics were included in the analysis.
All CEL files were subjected to GC-content-based Robust Multi-array Average (GCRMA) normalization (version 2.20.0) (Irizarry R A, et al. Nucleic Acids Res 2003; 31:e15; Li C, et al. Genome Biol 2001; 2:[…]0032). Expression levels were log (base 2) transformed.
All calculations and analyses were carried out using R (version 2.11.1) and Bioconductor computational tools (Gentleman R. Springer Science+Business Media 2005).

[2] = tested on: spleen; assay: Transcriptional profiling, chronic dosing, EAE mice: spleen; type: in vivo; conditions: for Number of differentially expressed genes identified: Spleen: EAE, Chronic Dosing
Experimental: 2011 March 134(Pt3): 678-92. […] FIG. 17 depicts exemplary immunophenotyping panels used to analyze various immune cell populations (e.g., T cells, T regulatory cells, NK cells, B cells, myeloid cells). […] Animals were exposed to CO2 and whole blood collected via cardiac puncture. Two 100 μl aliquots of whole blood were collected in 1.5 mL microcentrifuge tubes and snap frozen in liquid nitrogen. Peripheral (liver, spleen, kidney and jejunum) and CNS brain (cerebellum, hippocampus, striatum and cortex) tissues were harvested and snap frozen in liquid nitrogen, with special care taken to collect tissues of similar size and from the same location. All samples were stored at -80° C. until RNA extraction was conducted. For RNA preparation, frozen tissues were placed in 2 mL RNAse-free 96-well blocks with 1.5 mL QIAzol Lysis Reagent (QIAgen) and a 3.2 mm stainless steel bead (BioSpec Products, Bartlesville, Okla.). Tissues were disrupted for four cycles of 45 seconds in a Mini-Beadbeater (Biospec Products). RNA was extracted in chloroform and the aqueous phase was mixed with an equal volume of 70% ethanol. Extracted RNA was applied to RNeasy 96 plates and purified by the spin method according to the manufacturer's protocol (RNeasy 96 Universal Tissue Protocol, QIAgen, Hilden Germany). […] Washing and staining of the hybridized arrays were completed as described in the GeneChip Expression analysis technical manual for HT plate arrays using the Genechip® Array Station (Affymetrix, Santa Clara, Calif.) with modifications as described in […] et al. The processed GeneChip® plate arrays were scanned using GeneTitan scanner (Affymetrix, Santa Clara, Calif.). Affymetrix scans were subject to quality control (QC) measures. These tests included a visual inspection of the distribution of raw signal intensities and an assessment of RNA degradation, relative log expression (RLE), and normalized unscaled standard error (NUSE). All sample scans that passed these QC metrics were included in the analysis. All CEL files were subjected to GC-content-based Robust Multi-array Average (GCRMA) normalization (version 2.20.0) (Irizarry R A, et al. Nucleic Acids Res 2003; 31:e15; Li C, et al. Genome Biol 2001; 2:[…]0032). […] Stat Appl Genet Mol Biol 2004; 3:Article3). […] Springer Science+Business Media 2005).

[3] = 100 mpk, vs Vehicle, 2 h after last dosing
[4] = 100 mpk, vs Vehicle, 7 h after last dosing
[5] = 100 mpk, vs Vehicle, 12 h after last dosing
[6] = cerebellum, 100MMF-vs-Veh, 12 h

## COC(=O)/C=C/C(=O)OC [DMF, dimethyl fumarate]
[1]; 100 mpk DMF-vs-100 mpk MMF, 2 h after last dosing
  Number of differentially expressed genes identified: Cerebellum: 0
[1]; 100 mpk DMF-vs-100 mpk MMF, 7 h after last dosing
  Number of differentially expressed genes identified: Cerebellum: 0
[1]; 100 mpk DMF-vs-100 mpk MMF, 12 h after last dosing
  Number of differentially expressed genes identified: Cerebellum: 0
[1]; [3]
  Number of differentially expressed genes identified: Cerebellum: 0
[1]; [4]
  Number of differentially expressed genes identified: Cerebellum: 0
[1]; [5]
  Number of differentially expressed genes identified: Cerebellum: 0
[1]; cerebellum, 100DMF-vs-100MMF, 2 h
  differentially expressed genes: None
[1]; cerebellum, 100DMF-vs-100MMF, 7 h
  differentially expressed genes: None
[1]; cerebellum, 100DMF-vs-100MMF, 12 h
  differentially expressed genes: None
[1]; cerebellum, 100DMF-vs-Veh, 2 h
  differentially expressed genes: None
[1]; cerebellum, 100DMF-vs-Veh, 7 h
  differentially expressed genes: None
[1]; cerebellum, 100DMF-vs-Veh, 12 h
  differentially expressed genes: None
[2]; 100 mpk DMF-vs-90 mpk MMF, 7 h after last dosing
  Number of differentially expressed genes identified: Spleen: 3
[2]; 100 mpk DMF-vs-90 mpk MMF, 12 h after last dosing
  Number of differentially expressed genes identified: Spleen: 4
[2]; 100 mpk DMF-vs-Vehicle, 7 h after last dosing
  Number of differentially expressed genes identified: Spleen: 12
[2]; 100 mpk DMF-vs-Vehicle, 12 h after last dosing
  Number of differentially expressed genes identified: Spleen: 7
[2]; spleen, 100DMF-vs-90MMF, 7 h
  FC Ear1 (1421802_PM_at): −3.57
  FC Epx (1449136_PM_at): −3.20
  FC Prg2 (1422873_PM_at): −2.10
[2]; spleen, 100DMF-vs-90MMF, 12 h
  FC Angptl4 (1417130_PM_s_at): 1.97
  FC Zbtb16 (1419874_PM_x_at): 1.95
  FC Zbtb16 (1442025_PM_a_at): 2.29
  FC Zbtb16 (1442026_PM_at): 2.36
[2]; spleen, 100DMF-vs-Veh, 7 h
  FC 4930519L02Rik (1454269_PM_s_at): 1.66
  FC Adamts4 (1455965_PM_at): −1.51
  FC Aox1 (1419435_PM_at): 1.88
  FC Gsta3 (1423436_PM_at): 2.02
  FC Gsta3 (1423437_PM_at): 1.94
  FC LOC677317 /// Me1 1416632_PM_at: 1.61
  FC Nqo1 (1423627_PM_at): 2.27
  FC Pir (1429001_PM_at): 2.74
  FC Srxn1 (1419942_PM_at): 2.31
  FC Srxn1 (1426875_PM_s_at): 2.29
  FC Srxn1 (1451680_PM_at): 2.14
  FC Steap4 (1425829_PM_a_at): −1.88
[2]; spleen, 100DMF-vs-Veh, 12 h
  FC Dbp (1418174_PM_at): −1.65
  FC Dbp (1438211_PM_s_at): −1.78
  FC Ighg (1424631_PM_a_at): −1.52
  FC Srxn1 (1419942_PM_at): 1.85
  FC Srxn1 (1426875_PM_s_at): 1.90
  FC Srxn1 (1451680_PM_at): 1.60
[2]; spleen, chronically dosed EAE mice, 12 h after final dosing
  Zbtb16 transcript signal, DMF-treated compared to MMF-treated animals: increased signal

## COC(=O)/C=C/C(=O)O [MMF, monomethyl fumarate]
[1]; [3]
  Number of differentially expressed genes identified: Cerebellum: 2
[1]; [4]
  Number of differentially expressed genes identified: Cerebellum: 0
[1]; [5]
  Number of differentially expressed genes identified: Cerebellum: 3
[1]; cerebellum, 100MMF-vs-Veh, 2 h
  FC Csnk2a1 (1419034_PM_at): −1.65
  FC Trak2 (1429607_PM_at): −1.55
[1]; [6]
  FC Hif3a (1425428_PM_at): 1.58
  FC Pnpla7 (1451361_PM_a_at): 1.52
  FC Vnn1 (1447845_PM_s_at): 1.83
[2]; 90 mpk MMF-vs-Vehicle, 7 h after last dosing
  Number of differentially expressed genes identified: Spleen: 23
[2]; 90 mpk MMF-vs-Vehicle, 12 h after last dosing
  Number of differentially expressed genes identified: Spleen: 9
[2]; spleen, 100MMF-vs-Veh, 7 h
  FC 1441413_PM_at (no gene symbol): 1.54
  FC 1451626_PM_x_at (no gene symbol): 1.55
  FC 2810037O22Rik (1428866_PM_at): −1.88
  FC 4930519L02Rik (1454269_PM_s_at): 1.78
  FC Aox1 (1419435_PM_at): 1.91
  FC Cacnb3 (1448656_PM_at): −1.58
  FC Figf /// LOC100047108 (1438953_PM_at): 1.57
  FC Gsta3 (1423436_PM_at): 1.74
  FC Gsta3 (1423437_PM_at): 1.61
  FC Higd1c /// Mettl7a1 /// Mettl7a2 1434150_PM_a_at: 1.57
  FC Kcnh1 (1435994_PM_at): −1.60
  FC Lmcd1 1424596_PM_s_at: −1.74
  FC Mmp16 (1437568_PM_at): −1.56
  FC Nqo1 (1423627_PM_at): 2.35
  FC Pdk4 (1417273_PM_at): 1.68
  FC Pir (1429001_PM_at): 2.67
  FC Socs3 (1416576_PM_at): −1.79
  FC Srxn1 (1419942_PM_at): 2.29
  FC Srxn1 (1426875_PM_s_at): 2.26
  FC Srxn1 (1451680_PM_at): 2.05
  FC Steap4 (1425829_PM_a_at): −1.91
  FC Steap4 (1460197_PM_a_at): −2.48
  FC Txnrd1 (1424486_PM_a_at): 1.69
[2]; spleen, 100MMF-vs-Veh, 12 h
  FC 2810037O22Rik (1428866_PM_at): −1.55
  FC Dbp (1418174_PM_at): −1.85
  FC Dbp (1438211_PM_s_at): −1.90
  FC Dclre1a (1432097_PM_a_at): 1.56
  FC Nqo1 (1423627_PM_at): 2.05
  FC Nr1d1 (1426464_PM_at): −1.76
  FC Nr1d2 (1416958_PM_at): −1.53
  FC Srxn1 (1419942_PM_at): 1.73
  FC Srxn1 (1426875_PM_s_at): 1.75
